Among the data in patent US11612604B2, “Methods of treating cancer with PLK4 inhibitors” (LUDWIG INSTITUTE FOR CANCER RESEARCH LTD, priority 2017, dated 2023) are IC50 values, retold here.

pIC50: −log10 of the molar value.

For orientation: pIC50 means the IC50 on a negative log10 scale, so that one unit is a factor of ten. The low end stands for a high IC50, the high end for a low IC50.

This test addresses T1, PLK4 (Homo sapiens, UniProt O00444).
T1 sequence (O00444 1-970): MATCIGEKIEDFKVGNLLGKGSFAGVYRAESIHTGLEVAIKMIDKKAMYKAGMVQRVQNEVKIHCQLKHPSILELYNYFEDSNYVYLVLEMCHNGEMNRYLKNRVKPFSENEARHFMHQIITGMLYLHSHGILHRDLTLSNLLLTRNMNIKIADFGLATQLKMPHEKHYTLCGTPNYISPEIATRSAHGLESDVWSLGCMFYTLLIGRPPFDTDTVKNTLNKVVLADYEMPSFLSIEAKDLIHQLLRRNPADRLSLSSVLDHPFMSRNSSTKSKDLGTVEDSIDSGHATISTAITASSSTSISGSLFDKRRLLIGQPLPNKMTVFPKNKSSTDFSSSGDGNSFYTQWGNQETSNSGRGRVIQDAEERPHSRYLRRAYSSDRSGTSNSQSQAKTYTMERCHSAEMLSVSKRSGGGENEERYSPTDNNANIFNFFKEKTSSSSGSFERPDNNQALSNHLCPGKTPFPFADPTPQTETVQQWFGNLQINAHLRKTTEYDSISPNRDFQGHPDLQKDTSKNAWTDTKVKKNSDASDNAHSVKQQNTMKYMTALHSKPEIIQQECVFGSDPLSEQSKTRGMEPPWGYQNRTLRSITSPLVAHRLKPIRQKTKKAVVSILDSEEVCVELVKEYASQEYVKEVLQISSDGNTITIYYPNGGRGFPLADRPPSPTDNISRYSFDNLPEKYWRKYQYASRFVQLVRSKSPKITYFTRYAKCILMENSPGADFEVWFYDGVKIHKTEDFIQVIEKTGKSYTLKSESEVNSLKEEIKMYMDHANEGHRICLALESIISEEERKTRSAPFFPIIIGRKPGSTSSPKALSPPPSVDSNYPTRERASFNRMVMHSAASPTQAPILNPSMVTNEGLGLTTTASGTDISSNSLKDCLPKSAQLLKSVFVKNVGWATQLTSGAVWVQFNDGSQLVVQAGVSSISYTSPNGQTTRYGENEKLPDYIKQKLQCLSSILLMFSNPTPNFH
Kind of test: Activity (IC50) of the Table 1 compounds as PLK4 inhibitors. In kind it is biochemical. As to conditions: Table 1, IC50 class.
`CC(=O)Nc1ccc(Sc2nc(Nc3cc(C)[nH]n3)c(C)c(N(C)C)n2)cc1` gave a negative-log IC50 (pIC50) above 7.00.
In turn, `CC(=O)Nc1ccc(Sc2nc(Nc3cc(C)[nH]n3)c(C)c(N3CCCCC3)n2)cc1` had a negative logarithm of the IC50 (pIC50) above 7.00.
Then `COCCN(C)c1nc(Sc2ccc(NC(C)=O)cc2)nc(Nc2cc(C)[nH]n2)c1C`, with above 7.00; and `COCCNc1nc(Sc2ccc(NC(C)=O)cc2)nc(Nc2cc(C)[nH]n2)c1C`, with above 7.00; and `COc1c(Nc2cc(C)[nH]n2)nc(Sc2ccc(NC(=O)C3CCCC3)cc2)nc1N1CCOCC1`, with above 7.00.
For `COc1c(Nc2cc(C)[nH]n2)nc(Sc2ccc(NC(C)=O)cc2)nc1C1=CCN(C)CC1`, the pIC50 is above 7.00.
Turning to `CC(=O)Nc1ccc(Sc2nc(Nc3cc(C)[nH]n3)c3c(n2)C2(CC3)CCN(CCN(C)C)CC2)cc1`, the pIC50 is above 7.00.
Then `Cc1cc(Nc2nc(Sc3ccc([N+](=O)[O-])cc3)nc3c2CCC32CCN(CCN(C)C)CC2)n[nH]1`, with above 7.00; and `Cc1cc(Nc2nc(Sc3ccc(N)cc3)nc3c2CCC32CCN(CCN(C)C)CC2)n[nH]1`, with above 7.00.
Then `COc1c(Nc2cc(C)[nH]n2)nc(Sc2ccc(NC(C)=O)cc2)nc1N1CCN(CCN2CCCC2)CC1`, with above 7.00; and `CCN(C)CCN1CCN(c2nc(Sc3ccc(NC(C)=O)cc3)nc(Nc3cc(C)[nH]n3)c2OC)CC1`, with above 7.00; and `COc1c(Nc2cc(C)[nH]n2)nc(Sc2ccc(NC(C)=O)cc2)nc1N1CCN(CCN)CC1`, with above 7.00.
With `CCN(CC)CCN1CCN(c2nc(Sc3ccc(NC(C)=O)cc3)nc(Nc3cc(C)[nH]n3)c2OC)CC1`, the negative logarithm of the IC50 (pIC50) is above 7.00.
In the case of `COc1c(Nc2cc(C)[nH]n2)nc(Sc2ccc(NC(C)=O)cc2)nc1N1CCN(CCN2CCNCC2)CC1` it was above 7.00.
`COc1c(Nc2cc(C)[nH]n2)nc(Sc2ccc(NC(C)=O)cc2)nc1N1CCC(CC(=O)O)CC1` gave a pIC50 above 7.00.
In the case of `COc1c(Nc2cc(C)[nH]n2)nc(Sc2ccc(NC(C)=O)cc2)nc1N1CCN(CCN2CCN(C)CC2)CC1` it was above 7.00.
In the case of `COC(=O)CC1CCN(c2nc(Sc3ccc(NC(C)=O)cc3)nc(Nc3cc(C)[nH]n3)c2OC)CC1` it was above 7.00; in that of `COc1c(Nc2cc(C)[nH]n2)nc(Sc2ccc(NC(C)=O)cc2)nc1N1CCN(C(N)=O)CC1`, above 7.00; in that of `COc1c(Nc2cc(C)[nH]n2)nc(Sc2ccc(NC(C)=O)cc2)nc1N1CCN(CC(=O)O)CC1`, above 7.00.
Then `COc1c(Nc2cc(C)[nH]n2)nc(Sc2ccc(NC(C)=O)cc2)nc1N1CC2CCC(C1)N2CCN(C)C`, with above 7.00; and `COc1c(Nc2cc(C)[nH]n2)nc(Sc2ccc(NC(C)=O)cc2)nc1N1CCC(CC(N)=O)CC1`, with above 7.00.
`COc1c(Nc2cc(C)[nH]n2)nc(Sc2ccc(NC(C)=O)cc2)nc1N1CCN(C(=N)NO)CC1`: the pIC50 is above 7.00.
In the case of `COc1c(Nc2cc(C)[nH]n2)nc(Sc2ccc(NC(C)=O)cc2)nc1N1CCN(CCN(C)OC)CC1` it was above 7.00.
The compound `COc1c(Nc2cc(C)[nH]n2)nc(Sc2ccc(NC(C)=O)cc2)nc1N1CCN(CCNC(N)=O)CC1` gave a negative logarithm of the IC50 (pIC50) above 7.00.
Take `COc1c(Nc2cc(C)[nH]n2)nc(Sc2ccc(NC(C)=O)cc2)nc1N1CC(C)N(CCN(C)C)C(C)C1` (stereo not shown): the pIC50 was above 7.00.
`COc1c(Nc2cc(C)[nH]n2)nc(Sc2ccc(NC(C)=O)cc2)nc1N1CCN(C(=N)N)CC1` showed a negative-log IC50 (pIC50) above 7.00.
`COC(=O)CN1CCN(c2nc(Sc3ccc(NC(C)=O)cc3)nc(Nc3cc(C)[nH]n3)c2OC)CC1` gave a negative-log IC50 (pIC50) above 7.00.
The compound `COc1c(Nc2cc(C)[nH]n2)nc(Sc2ccc(NC(C)=O)cc2)nc1N1CCN(CCN2CCCCCC2)CC1` had a pIC50 above 7.00.
The compound `COc1c(Nc2cc(C)[nH]n2)nc(Sc2ccc(NC(C)=O)cc2)nc1N1CCN(CCNC(=N)N)CC1` showed a pIC50 above 7.00.
Compound `COC(=O)c1ccc(Sc2nc(Nc3cc(C)[nH]n3)c(OC)c(N3CCN(CCN(C)C)CC3)n2)cc1` gave a negative-log IC50 (pIC50) above 7.00.
`COc1c(Nc2cc(C)[nH]n2)nc(Sc2ccc(NC(C)=O)cc2)nc1C1CCN(CCN(C)C)CC1`: the pIC50 is 6.00 to 7.00.
The compound `COc1c(Nc2cc(C)[nH]n2)nc(Sc2ccc(NC(C)=O)cc2)nc1N1CCC(CC(=O)N(C)C)CC1` showed a pIC50 above 7.00.
Consider `COc1c(Nc2cc(C)[nH]n2)nc(Sc2ccc(NC(C)=O)cc2)nc1N1CCN(CC(=O)N2CCCCC2)CC1`, for which the negative-log IC50 (pIC50) was above 7.00.
Then `COc1c(Nc2cc(C)[nH]n2)nc(Sc2ccc(NC(C)=O)cc2)nc1N1CC2CCC(C1)N2CCN1CCN(C)CC1`, with above 7.00.
`COc1c(Nc2cc(C)[nH]n2)nc(Sc2ccc(NC(C)=O)cc2)nc1N1CCN(CCN(C)C)CC1`: the pIC50 was above 7.00.
With `COc1c(Nc2cc(C)[nH]n2)nc(Sc2ccc(C(=O)N(C)C)cc2)nc1N1CCN(CCN(C)C)CC1`, the negative logarithm of the IC50 (pIC50) is above 7.00.
Regarding `COc1c(Nc2cc(C)[nH]n2)nc(Sc2ccc(S(C)(=O)=O)cc2)nc1N1CCN(CCN(C)C)CC1`, the pIC50 was above 7.00.
Then `CNC(=O)c1ccc(Sc2nc(Nc3cc(C)[nH]n3)c(OC)c(N3CCN(CCN(C)C)CC3)n2)cc1`, with above 7.00.
As for `COc1c(Nc2cc(C)[nH]n2)nc(Sc2ccc(NC(C)=O)cc2)nc1N1CCN(CCN(C)Cc2ccccc2)CC1`, the pIC50 was above 7.00.
Compound `COc1c(Nc2cc(C)[nH]n2)nc(Sc2ccc(NC(C)=O)cc2)nc1N1CCN(CCN(C)c2ccccc2)CC1` gave a pIC50 above 7.00.
Then `COc1c(Nc2cc(C)[nH]n2)nc(Sc2ccc(NC(C)=O)cc2)nc1N1CCN(CCN2C3CCCC2CC3)CC1`, with above 7.00; and `COc1c(Nc2cc(C)[nH]n2)nc(Sc2ccc([S+](C)[O-])cc2)nc1N1CCN(CCN(C)C)CC1` (stereo not shown), with above 7.00; and `COc1c(Nc2cc(C)[nH]n2)nc(Sc2ccc(NC(C)=O)cc2)nc1N1CC2CCC(C1)N2CCN1CCCCCCC1`, with above 7.00.
Turning to `COc1c(Nc2cc(C)[nH]n2)nc(Sc2ccc(NC(C)=O)cc2)nc1N1CCN(CCS(C)(=O)=O)CC1`, the negative logarithm of the IC50 (pIC50) is above 7.00.
On to `COc1c(Nc2cc(C)[nH]n2)nc(Sc2ccc(NC(C)=O)cc2)nc1N1CCN(CCN2C3CCCC2CCC3)CC1`, for which the pIC50 was above 7.00.
On to `COc1c(Nc2ncc(C)s2)nc(Sc2ccc(NC(C)=O)cc2)nc1N1CCN(CCN(C)C)CC1`, for which the pIC50 was above 7.00.
In the case of `CC(=O)Nc1ccc(Sc2nc(Nc3cc(C)[nH]n3)c(C)c(C3CCN(CCN(C)C)CC3)n2)cc1` it was above 7.00.
Regarding `COc1c(Nc2cc(C)[nH]n2)nc(Sc2ccc(S(C)(=O)=O)cc2)nc1N1CCN(CCN2CCN(C)CC2)CC1`, the pIC50 was above 7.00.
Compound `COc1c(Nc2cc(C)[nH]n2)nc(Sc2ccc(NS(C)(=O)=O)cc2)nc1N1CCN(CCN(C)C)CC1` showed a negative-log IC50 (pIC50) above 7.00.
On to `CCS(=O)(=O)c1ccc(Sc2nc(Nc3cc(C)[nH]n3)c(OC)c(N3CCN(CCN(C)C)CC3)n2)cc1`, for which the negative-log IC50 (pIC50) was above 7.00.
`COc1c(Nc2cc(C)[nH]n2)nc(Sc2ccc(S(=O)(=O)C(F)(F)F)cc2)nc1N1CCN(CCN(C)C)CC1` gave a pIC50 above 7.00.
As to `COc1c(Nc2cc(C)[nH]n2)nc(Sc2ccc(S(=O)(=O)N(C)C)cc2)nc1N1CCN(CCN(C)C)CC1`, the negative logarithm of the IC50 (pIC50) was above 7.00.
In turn, `COc1c(Nc2cc(C)[nH]n2)nc(Sc2ccc(S(=O)(=O)Cc3ccccc3)cc2)nc1N1CCN(CCN(C)C)CC1` gave a negative-log IC50 (pIC50) above 7.00.
Consider `COc1c(Nc2cc(C)[nH]n2)nc(Sc2ccc(S(=O)(=O)COCc3ccccc3)cc2)nc1N1CCN(CCN(C)C)CC1`, for which the negative-log IC50 (pIC50) is above 7.00.
In the case of `COc1c(Nc2ncc(C)s2)nc(Sc2ccc(S(C)(=O)=O)cc2)nc1N1CCN(CCN(C)C)CC1` it was above 7.00; in that of `COc1c(Nc2cc(C)[nH]n2)nc(Sc2ccc(NC(C)=O)cc2)nc1C1CCN(CCN2CCN(C)CC2)CC1`, 6.00 to 7.00; in that of `COc1c(Nc2cc(C)[nH]n2)nc(Sc2ccc(S(=O)(=O)CCO)cc2)nc1N1CCN(CCN(C)C)CC1`, above 7.00.
Then `CCCS(=O)(=O)c1ccc(Sc2nc(Cc3cc(C)[nH]n3)c(OC)c(N3CCN(CCN(C)C)CC3)n2)cc1`, with above 7.00; and `CCS(=O)(=O)c1ccc(Sc2nc(Nc3cc(C)[nH]n3)c(OC)c(N3CCC(CCN(C)C)CC3)n2)cc1`, with above 7.00; and `COc1c(Nc2cc(C)[nH]n2)nc(Sc2ccc(S(=O)(=O)CC(C)C)cc2)nc1N1CCN(CCN(C)C)CC1`, with above 7.00.
In the case of `CCS(=O)(=O)c1ccc(Sc2nc(Nc3cc(C)[nH]n3)c(OC)c(N3CCN(CCN4CCN(C)CC4)CC3)n2)cc1` it was above 7.00; in that of `COc1c(Nc2cc(C)[nH]n2)nc(Sc2ccc(S(=O)(=O)C(C)C)cc2)nc1N1CCN(CCN(C)C)CC1`, above 7.00.
In turn, `COc1c(Nc2cc(C)[nH]n2)nc(Sc2ccc(S(=O)(=O)Cc3ccc(F)cc3)cc2)nc1N1CCN(CCN(C)C)CC1` had a negative-log IC50 (pIC50) above 7.00.
In the case of `COc1ccc(CS(=O)(=O)c2ccc(Sc3nc(Nc4cc(C)[nH]n4)c(OC)c(N4CCN(CCN(C)C)CC4)n3)cc2)cc1` it was above 7.00.
